Experiments:
[1] = in vivo; conditions: mouse
Description: The acute toxicity of the products of the invention was determined on groups of 20 Swiss OF1 mice weighing 22 to 24 grams by intravenous route.

[2] = test system: cornea of the rabbit; assay: Local anaesthetic activity on contact, rabbit cornea (derived from Regnier); type: in vivo, rabbit (male albino); conditions: for Local anaesthetic activity: effect compared with lidocaine: 1% solution, relative to lidocaine hydrochloride at identical concentration, rabbit cornea; for local anaesthesia/lidocaine hydrochloride index: relative index I from activity and relative toxicity, calculated in mmoles
Description: The local anaesthetic activity on contact is determined on the cornea of the rabbit according to a method derived from the technique of Regnier (Regnier J. R. Salle P. Bull. Soc. Pharmacol. 1926 33, 91).
Male albino rabbits weighing 2 to 3 kg are used in groups of 5. The product solution to be tested is injected in a volume of 0.2 ml into the conjunctival sac. The cornea is then stimulated by means of a hair 3, 6, 10, 15, 20, 25, 45 and 60 minutes after injection.
The local anaesthetic activity is thus expressed in relation to this reference product.

[3] = test system: rat duodenum; assay: Spasmolytic activity in vitro against barium chloride, isolated rat duodenum; conditions: for Spasmolytic activity compared with papaverine hydrochloride / spasmolytic index/papaverine hydrochloride: rat duodenum; for Spasmolytic activity compared with papaverine hydrochloride: BaCl2 50 mg/l, relative EC50 comparison; for spasmolytic index/papaverine hydrochloride: relative index I from activity and relative toxicity, calculated in mmoles; for relative index of spasmolytic activity compared with papaverine: summary statement, times higher than the reference
Description: (§1) The spasmolytic activity of the products was studied in vitro with regard to two distinct agonists, namely:
(§2) The organ fragments were kept alive in a tank containing a solution of Tyrode (37° C., pH 7.2, oxygenated by the mixture O2 /CO2, 95%/5%).
(§3) The isotonic contractions were recorded graphically on a physiograph by means of a transducer. […] The values obtained are compared with those of spasmolytic agents selected as reference and are determined under the same experimental conditions, namely:
papaverine hydrochloride for the convulsant effect of barium chloride;

[4] = test system: guinea-pig ileum; assay: Spasmolytic activity in vitro against nicotine, isolated guinea-pig ileum; conditions: for Spasmolytic activity compared with hexamethonium dibromide: nicotine 1 mg/l, relative EC50 comparison; for spasmolytic index/hexamethonium dibromide: relative index I from activity and relative toxicity, calculated in mmoles
Description: as §1, §2, §3
hexamethonium dibromide for the convulsant effect of nicotine (table V).

[5] = test system: inflammation in the paw of the rat; assay: Analgesic activity, brewer's yeast paw inflammation pressure test (derived from Randall and Selito); type: in vivo, rat (male Sprague-Dawley); conditions: 100 mg/kg oral, 1 hour after administration
Description: The analgesic activity of the products was studied on male Sprague-Dawley rats in groups of 15 by a method derived from that of Randall and Selito (Arch. Int. Pharmacodyn. 1957 (III) page 409). This method consists in causing a painful inflammation in the paw of the rat by injecting 0.1 ml of a 20% brewer's yeast solution, then applying a pressure to the inflammation and determining the value of the pressure at which a painful reaction of the animal appears.
The activity of the products was studied after 1 hour of administration by oral route at the rate of one dose of 100 mg/kg in comparison with untreated animals. In this test aspirin was chosen as reference substance.
The analgesic effect of the products is expressed by the percentage increase of the pressure endured by the treated animals in relation to that endured by the untreated animals.
The results of the analgesic activity of the product tested are expressed in relation to the activity of aspirin administered by oral route at a dose of 100 mg/kg.

[6] = reference substances, mice, intravenous

Compound	LD50 at 192 h ([1]; iv)	Local anaesthetic activity: effect compared with lidocaine [2]	local anaesthesia/lidocaine hydrochloride index [2]	Spasmolytic activity compared with papaverine hydrochloride [3]	spasmolytic index/papaverine hydrochloride [3]	Spasmolytic activity compared with hexamethonium dibromide [4]	spasmolytic index/hexamethonium dibromide [4]	Analgesic activity in relation to aspirin [5]	LD50 at 192 h [1, 6]	relative index of spasmolytic activity compared with papaverine [3]
COc1ccc(CC(C)(COCc2ccccc2)N(C)C)cc1OC (stereo not drawn) [Example 18]	27.3 mg/kg	–	–	–	–	–	–	–	–	–
CCC(COc1ccccn1)(c1ccccc1)N(C)C (stereo not drawn) [Example 7]	37 mg/kg	1.1	1.30	1.7	1.89	1.0	1.75	–	–	–
CCC(CN(C)C)(OCc1cc(OC)c(OC)c(OC)c1)c1ccccc1 (stereo not drawn) [Example 11, 2-[(3,4,5-trimethoxy)benzyloxy]-2-phenyl-N,N-dimethyl-n-butylamine]	46.7 mg/kg	1.0	1.49	1.9	2.69	2.6	5.76	2.3	–	–
CCC(COCc1ccc(OC)c(OC)c1)(c1ccccc1)N(C)C (stereo not drawn) [Example 1, 1-[(3,4-dimethoxy)benzyloxymethyl]-1-phenyl-N,N-dimethyl-n-propylamine]	30 mg/kg	1.6	1.52	2.7	2.45	0.9	1.29	1	–	–
CCC(COCc1ccccn1)(c1ccccc1)N(C)C (stereo not drawn) [Example 9]	39 mg/kg	0.7	0.875	0.4	0.475	1.4	2.62	–	–	–
COc1ccc(Cc2nccc3cc(OC)c(OC)cc23)cc1OC [papaverine, reference compound]	–	–	–	–	–	–	–	–	33.1 mg/kg	–
COc1ccc(CC(C)(N)COCc2ccccc2)cc1OC (stereo not drawn) [Example 17, 1-Benzyloxymethyl-1-methyl-(3,4-dimethoxy)-phenethyl-amine]	51.6 mg/kg	–	–	–	–	–	–	–	–	–
CCCCCCCCCCOCC(CC)(c1ccccc1)N(C)C (stereo not drawn) [Example 5]	37 mg/kg	–	–	0.5	0.56	2.2	3.85	2.5	–	–
CCC(COCc1cc(OC)c(OC)c(OC)c1)(c1ccccc1)N(C)C (stereo not drawn) [Example 2, 1-[(3,4,5-trimethoxy)benzyloxymethyl]-1-phenyl-N,N-dimethyl-n-propylamine]	42 mg/kg	2.2	2.95	5.4	6.90	1.2	2.42	–	–	up to seven
CC(=O)Oc1ccccc1C(=O)O [aspirin, reference compound]	–	–	–	–	–	–	–	1	–	–
COc1ccc(C(C)(COCc2ccc(Cl)cc2)N(C)C)cc1 (stereo not drawn) [Example 13]	48.4 mg/kg	1.1	1.71	–	–	–	–	–	–	–
C[N+](C)(C)CCCCCC[N+](C)(C)C [hexamethonium, reference compound]	–	–	–	–	–	–	–	–	21 mg/kg	–
CCC(COc1ccc(OC)cc1)(c1ccccc1)N(C)C (stereo not drawn) [Example 21, 1-[(4-methoxy)phenoxymethyl]-1-phenyl-N,N-dimethyl-n-propylamine]	140 mg/kg	0.45	2.00	1.7	7.28	1.7	11.33	–	–	up to seven
CCC(CN(C)C)(Oc1ccc(OC)cc1)c1ccccc1 (stereo not drawn) [Example 22, 2-[(4-methoxy)phenoxy]-2-phenyl-N,N-dimethyl-n-butylamine]	59.6 mg/kg	–	–	–	–	–	–	–	–	–
CCC(COCc1cc(OC)c(OC)c(OC)c1)(NC)c1ccccc1 (stereo not drawn) [Example 12, 1-[(3,4,5-trimethoxy)benzyloxymethyl]-1-phenyl-N-methyl-n-propylamine]	34 mg/kg	1.7	1.84	1.2	1.24	2.3	4.09	–	–	–
CCC(COCc1ccc(C)cc1)(c1ccccc1)N(C)C (stereo not drawn) [Example 6]	48.6 mg/kg	–	–	–	–	–	–	–	–	–
Cc1ccc(COCC(C)(c2ccc(Cl)c(Cl)c2)N(C)C)cc1 (stereo not drawn) [Example 15]	160 mg/kg	–	–	–	–	–	–	–	–	–
CCCCOCC(CC)(c1ccccc1)N(C)C (stereo not drawn) [Example 4]	26.8 mg/kg	–	–	–	–	–	–	–	–	–
CCC(COCc1ccccc1)(c1ccccc1)N(C)C (stereo not drawn) [Example 3, 1-Benzyloxymethyl-1-phenyl-N,N-dimethyl-n-propylamine]	41.4 mg/kg	1.4	1.85	0.9	1.125	3.4	6.69	–	–	–
COc1ccc(CCC(C)(COCc2cc(OC)c(OC)c(OC)c2)N(C)C)cc1OC (stereo not drawn) [Example 19]	30.7 mg/kg	0.95	0.92	–	–	–	–	–	–	–
CCC(COCc1cccnc1)(c1ccccc1)N(C)C (stereo not drawn) [Example 10]	43 mg/kg	–	–	0.4	0.525	1.7	3.50	1.8	–	–

From patent US4301163A, “Amino-ether oxides and use thereof in therapy” (priority 1979, dated 1981)
